Measured values: ChEMBL document CHEMBL1909046, “DrugMatrix in vitro pharmacology data”

How the values were obtained:
[1] = target: T1, D(4) dopamine receptor (Homo sapiens, UniProt P21917); assay: DRUGMATRIX: Dopamine D4.2 radioligand binding (ligand: [3H] Spiperone); format: cell membranes, CHO-K1, Membrane; details: Not Active = under 50% inhibition at 10 µM; for Ki: read-out: Ki
T1 sequence (P21917 whole entry): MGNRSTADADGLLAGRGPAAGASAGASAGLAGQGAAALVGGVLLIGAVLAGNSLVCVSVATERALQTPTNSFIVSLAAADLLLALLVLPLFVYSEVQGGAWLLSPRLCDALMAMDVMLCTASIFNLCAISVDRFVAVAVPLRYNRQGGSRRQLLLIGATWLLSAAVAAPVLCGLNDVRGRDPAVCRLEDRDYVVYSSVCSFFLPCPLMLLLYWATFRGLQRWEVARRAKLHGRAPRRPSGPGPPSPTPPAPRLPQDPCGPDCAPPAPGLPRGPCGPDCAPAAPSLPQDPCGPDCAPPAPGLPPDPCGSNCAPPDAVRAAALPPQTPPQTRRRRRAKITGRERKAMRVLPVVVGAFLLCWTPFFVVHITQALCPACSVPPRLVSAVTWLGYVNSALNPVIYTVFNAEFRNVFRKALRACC

[2] = target: T2, Neuropeptide Y receptor type 1 (Homo sapiens, UniProt P25929); format: cell membranes, Membrane; details: sk-n-mc; further: in other assays of this panel Not Active means under 50% inhibition at 10 µM
T2 sequence (P25929 whole entry): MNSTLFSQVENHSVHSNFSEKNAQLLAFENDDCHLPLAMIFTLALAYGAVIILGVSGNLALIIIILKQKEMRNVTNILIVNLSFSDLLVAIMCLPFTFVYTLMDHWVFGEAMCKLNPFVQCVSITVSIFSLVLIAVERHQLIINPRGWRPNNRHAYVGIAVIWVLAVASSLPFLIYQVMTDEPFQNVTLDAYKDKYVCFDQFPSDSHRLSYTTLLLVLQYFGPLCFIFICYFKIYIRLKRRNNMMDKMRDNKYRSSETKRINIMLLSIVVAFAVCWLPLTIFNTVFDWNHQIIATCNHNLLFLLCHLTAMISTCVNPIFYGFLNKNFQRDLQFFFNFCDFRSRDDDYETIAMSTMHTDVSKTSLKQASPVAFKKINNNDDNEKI

[3] = target: Cytochrome P450 2C9 (Homo sapiens, UniProt P11712); details: bti-tn-5b1-4; further: in other assays of this panel Not Active means under 50% inhibition at 10 µM
[4] = target: Glycine receptor (Rattus norvegicus, UniProt P22771+P24524+P07727+P20781); format: cell membranes, Wistar, Spinal cord, Membrane; further: in other assays of this panel Not Active means under 50% inhibition at 10 µM
[5] = target: 5-hydroxytryptamine receptor 1B (Rattus norvegicus, UniProt P28564); format: cell membranes, Wistar, Cerebral cortex, Membrane; further: in other assays of this panel Not Active means under 50% inhibition at 10 µM
[6] = target: T3, C-X-C chemokine receptor type 2 (Homo sapiens, UniProt P25025); format: cell membranes, Membrane; details: cho-k1; further: in other assays of this panel Not Active means under 50% inhibition at 10 µM
T3 sequence (P25025 whole entry): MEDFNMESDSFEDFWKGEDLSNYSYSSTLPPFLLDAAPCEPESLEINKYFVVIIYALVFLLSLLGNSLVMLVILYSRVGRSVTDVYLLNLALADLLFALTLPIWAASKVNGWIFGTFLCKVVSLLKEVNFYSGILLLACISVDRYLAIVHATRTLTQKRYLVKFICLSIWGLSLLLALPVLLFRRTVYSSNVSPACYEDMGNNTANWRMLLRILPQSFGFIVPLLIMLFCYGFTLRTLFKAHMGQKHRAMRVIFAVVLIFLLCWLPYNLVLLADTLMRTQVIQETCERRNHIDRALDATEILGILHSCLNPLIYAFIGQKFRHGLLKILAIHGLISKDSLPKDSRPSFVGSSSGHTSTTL

[7] = target: Delta-type opioid receptor (Homo sapiens, UniProt P41143); format: cell membranes, HEK293, Membrane; further: in other assays of this panel Not Active means under 50% inhibition at 10 µM
Sequence of Delta-type opioid receptor (P41143 whole entry): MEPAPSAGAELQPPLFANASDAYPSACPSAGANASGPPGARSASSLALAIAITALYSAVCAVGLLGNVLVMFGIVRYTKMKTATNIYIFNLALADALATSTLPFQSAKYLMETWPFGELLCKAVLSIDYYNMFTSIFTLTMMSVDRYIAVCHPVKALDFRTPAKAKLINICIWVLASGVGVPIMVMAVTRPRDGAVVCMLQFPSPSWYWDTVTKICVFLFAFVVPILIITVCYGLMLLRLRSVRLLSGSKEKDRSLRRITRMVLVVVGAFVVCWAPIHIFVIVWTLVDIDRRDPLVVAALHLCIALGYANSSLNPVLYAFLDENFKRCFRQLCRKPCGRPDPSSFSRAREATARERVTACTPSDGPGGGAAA

Sequence of Cytochrome P450 2C9 (P11712 whole entry): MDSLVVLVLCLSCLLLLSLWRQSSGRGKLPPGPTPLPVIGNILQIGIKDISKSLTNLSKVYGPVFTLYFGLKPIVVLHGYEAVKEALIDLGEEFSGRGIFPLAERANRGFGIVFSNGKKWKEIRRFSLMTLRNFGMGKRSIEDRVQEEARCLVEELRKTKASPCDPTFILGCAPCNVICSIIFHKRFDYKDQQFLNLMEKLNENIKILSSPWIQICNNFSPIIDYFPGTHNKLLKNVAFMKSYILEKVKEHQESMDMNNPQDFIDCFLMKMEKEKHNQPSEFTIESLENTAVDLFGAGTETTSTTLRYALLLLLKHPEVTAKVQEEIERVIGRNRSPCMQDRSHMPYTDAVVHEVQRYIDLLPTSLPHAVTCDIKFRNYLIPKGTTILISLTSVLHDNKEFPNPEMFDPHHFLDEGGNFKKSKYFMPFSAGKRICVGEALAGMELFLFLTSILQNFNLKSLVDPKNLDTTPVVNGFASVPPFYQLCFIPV
Sequence of 5-hydroxytryptamine receptor 1B (P28564 whole entry): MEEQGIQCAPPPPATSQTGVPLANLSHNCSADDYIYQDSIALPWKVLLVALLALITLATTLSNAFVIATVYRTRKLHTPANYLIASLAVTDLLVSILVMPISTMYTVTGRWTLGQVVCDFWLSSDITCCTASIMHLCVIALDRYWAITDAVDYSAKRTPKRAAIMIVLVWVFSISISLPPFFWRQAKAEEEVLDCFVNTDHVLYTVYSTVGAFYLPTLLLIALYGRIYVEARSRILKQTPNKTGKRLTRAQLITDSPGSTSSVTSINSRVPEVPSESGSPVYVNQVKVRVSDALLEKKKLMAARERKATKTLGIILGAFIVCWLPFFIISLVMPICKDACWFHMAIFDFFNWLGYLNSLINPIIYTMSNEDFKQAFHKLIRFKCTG

Row | Compound | IC50 ([1]; cho-k1) | IC50 [2] | IC50 [3] | Ki [3] | IC50 [4] | IC50 [5] | IC50 [6] | IC50 ([7]; hek293) | IC50 ([1]; read-out: IC50) | Ki [1] | IC50 ([5]; read-out: IC50) | Ki ([5]; read-out: Ki) | IC50 ([7]; read-out: IC50) | Ki ([7]; read-out: Ki)
1 | C[C@@H]1CN(c2c(F)c(N)c3c(=O)c(C(=O)O)cn(C4CC4)c3c2F)C[C@H](C)N1 [SPARFLOXACIN] | Not Active | Not Active | Not Active | Not Active | Not Active | Not Active | Not Active | Not Active |  |  |  |  |  | 
2 | CC1(C)O[C@@H]2C[C@H]3[C@@H]4CCC5=CC(=O)C=C[C@]5(C)[C@@]4(F)[C@@H](O)C[C@]3(C)[C@]2(C(=O)CO)O1 [TRIAMCINOLONE ACETONIDE] | Not Active | Not Active | Not Active | Not Active | Not Active | Not Active | Not Active | Not Active |  |  |  |  |  | 
3 | CSc1ccc(/C=C2/C(C)=C(CC(=O)O)c3cc(F)ccc32)cc1 [SULINDAC SULFIDE] | Not Active | Not Active | Not Active | Not Active | Not Active | Not Active | Not Active | Not Active |  |  |  |  |  | 
4 | Nc1c2c(nc3ccccc13)CCCC2 [TACRINE] | Not Active | Not Active | Not Active | Not Active | Not Active | Not Active | Not Active | Not Active |  |  |  |  |  | 
5 | CN1CCN(CCCN2c3ccccc3Sc3ccc(Cl)cc32)CC1 [PROCHLORPERAZINE] |  | Not Active | Not Active | Not Active | Not Active |  | Not Active | Not Active | 2.31 µM | 0.81 µM | 2.65 µM | 1.2 µM |  | 
6 | N[C@@H](Cc1ccc(O)c(O)c1)C(=O)O [LEVODOPA] | Not Active | Not Active | Not Active | Not Active | Not Active | Not Active | Not Active | Not Active |  |  |  |  |  | 
7 | O=NN(CCCl)C(=O)NC1CCCCC1 [LOMUSTINE] | Not Active | Not Active | Not Active | Not Active | Not Active | Not Active | Not Active | Not Active |  |  |  |  |  | 
8 | Cc1c(C)c2c(c(C)c1O)CCC(C)(COc1ccc(CC3SC(=O)NC3=O)cc1)O2 (stereo not given) [TROGLITAZONE] | Not Active | Not Active |  |  | Not Active | Not Active | Not Active | Not Active |  |  |  |  |  | 
9 | CCOC(=O)N1CCC(=C2c3ccc(Cl)cc3CCc3cccnc32)CC1 [LORATADINE] | Not Active | Not Active |  |  | Not Active | Not Active | Not Active | Not Active |  |  |  |  |  | 
10 | Cc1cccc(N(C)C(=S)Oc2ccc3ccccc3c2)c1 [TOLNAFTATE] | Not Active | Not Active | Not Active | Not Active | Not Active | Not Active | Not Active | Not Active |  |  |  |  |  | 
11 | NC[C@H]1CC[C@H](C(=O)O)CC1 [TRANEXAMIC ACID] | Not Active | Not Active |  |  | Not Active | Not Active | Not Active | Not Active |  |  |  |  |  | 
12 | OCCN(CCO)c1nc(N2CCCCC2)c2nc(N(CCO)CCO)nc(N3CCCCC3)c2n1 [DIPYRIDAMOLE] | Not Active | Not Active |  |  | Not Active | Not Active | Not Active | Not Active |  |  |  |  |  | 
13 | CC(C)(C)NC(=O)[C@@H]1C[C@@H]2CCCC[C@@H]2CN1C[C@@H](O)[C@H](Cc1ccccc1)NC(=O)[C@H](CC(N)=O)NC(=O)c1ccc2ccccc2n1 | Not Active | Not Active | Not Active | Not Active | Not Active | Not Active | Not Active |  |  |  |  |  |  | 
14 | CC/C(=C(\c1ccccc1)c1ccc(OCCN(C)C)cc1)c1ccccc1 [TAMOXIFEN] |  | Not Active |  |  | Not Active | Not Active | Not Active |  | 11.2 µM | 3.91 µM |  |  | 13.3 µM | 4.7 µM
